Series [1] concerns tremor induced by tremorine. In words: Inhibition of tremor induced by tremorine on mice. Type of series: in vivo. The settings on record: for ED50: Mus musculus, po, 1 h before tremorine 20 mg/kg i.p., evaluated 45 minutes after tremorine; for Therapeutical index LD50/ED50: tremorine tremor, p.o. How it is done:
The tests were carried out according to Everett [Science, 124, 79 (1956)]. Tremor was induced by tremorine [1,1'-(2-butynylene)-dipyrrolidine] administered intraperitoneally at a dosage of 20 mg/kg. The compounds to be examined were given perorally to the animals one hour prior to the administration of tremorine, and the tremor developed was evaluated 45 minutes after the administration of tremorine.

For series [2], the system named is sleep induced with hexobarbital. In words: Narcosis potentiating activity (sleep induced with hexobarbital on mice). Type of series: in vivo. Particulars: for ED50: Mus musculus, po, 1 h before hexobarbital 40 mg/kg i.v., positive = sleep exceeding control mean by factor 2,5; for Therapeutical index LD50/ED50: p.o. How it is done:
Groups consisting of 6 mice each were treated with the compound to be examined, perorally. After one hour, hexobarbital [5-(1-cyclohexenyl)-1,5-dimethylbarbituric acid] was injected, intravenously, at a dosage of 40 mg/kg. The control group was treated only with hexobarbital to provoke sleep. The duration of sleep was recorded. If the duration of sleep of an animal exceeded that of the mean value of the control group by a factor of 2,5, it was considered as a positive reaction. From the data referring to the animals indicating a positive reaction, the ED50 -value was calculated. From the values of LD50 and ED50, the therapeutical index was determined for each compound tested.

Series [3] has as its system mice. In words: Motility inhibiting activity (Dews equipment). The series is classed as in vivo. The settings on record: for ED50: Mus musculus, po, 0.5 h, interruptions of infrared beam within 30 minutes; for Therapeutical index LD50/ED50: motility inhibition, p.o. How it is done:
The tests were performed according to the method of Borsy et al. [Arch. Int. Pharmacolyn., 124, 1-2 (1960)]. […] Then the test animals were placed in a Dews equipment. In this equipment the number of interruptions of infrared beam within 30 minutes was counted. The percentual deviation from the number of interruptions in the case of the control group was determined in each group, then the ED50 -values and therapeutical indexes were calculated.

The test system of series [4] is arrhythmia provoked by aconitine. In words: Antiarrhythmic activity on rats (arrhythmia provoked by aconitine). Type of series: in vivo. The settings on record: p.o., 4 mg/kg, 30 minutes prior to aconitine 75 μg/kg i.v. As to the method: The antiarrhythmic activity of the novel compounds was examined by influencing the arrhythmia provoked by aconitine on rats weighing 160 to 200 g according to a modified method of Marmo et al. [Arzneim.-Forsch., 20, 12 (1970)]. The animals were anaesthetized by the administration of 1.2 g/kg of ethyl urethane, intraperitoneally. Aconitine was given at a dosage of 75 μg/kg, intravenously. The compounds to be tested were administered perorally 30 minutes prior to the treatment with aconitine. In the test, lidocaine and quinidine was employed for comparison.

A short description of series [5]: Acute toxicity on white mice (LD50 p.o.). The arrangement: species or system strain CFLP, both sexes. Particulars: mouse, in vivo, po. How it is done:
Acute toxicity of the compounds was tested on white mice of both sexes from the strain CFLP in groups consisting of 10 animals weighing 18 to 22 g. The compounds to be tested were administered perorally in a volume of 20 ml/kg. […] The animals could consume tap water and standard mouse feed ad libitum. The LD50 -values were determined according to Litchfield and Wilcoxon [J. Pharmacol. Exp. Ther., 96, 99 (1949)].

For series [6], the system named is tonic-extensoric spasms on the hind limbs (pentetrazole). In words: Spasmolytic action on mice (pentetrazole-induced tonic-extensoric spasms). The series is classed as in vivo, white mice. Particulars: for ED50: Mus musculus, po; for Therapeutical index LD50/ED50: pentetrazole spasm. How it is done: The tests were carried out according to the method of Banzinger and Hane which was adapted to white mice [Arch. Int. Pharmacolyn., 167, 245-249 (1959)]. The test animals were treated perorally with the compounds to be tested. One hour after the administration pentetrazole (6,7,8,9,-tetrahydro-5H-tetrazolozepine) was given intraperitoneally in a dosis of 125 mg/kg. The tonic-extensoric spasms on the hind limbs were registered.

Series [7] concerns electroshock provoked by electric current. In words: Anticonvulsive activity on mice (inhibition of electroshock). The series is classed as in vivo. The settings on record: for ED50: Mus musculus, po. As to the method:
The tests were carried out according to the method of Swinyard et al. [I. Pharmacol. Exp. Ther., 106, 319-330 (1952)] which method is based on the inhibition of electroshock provoked by electric current on mice. The compounds to be tested were administered perorally. One hour later electroshocks were given by using corneal electrodes. The frequency of the electroshocks was 50 Hz, the current intensity 45 mA and the duration 0.4 sec. The full inhibition of the tonic-extensoric spasm on the hind limbs was considered as the criterium of the anticonvulsive activity. As reference compound phenobarbital, trimetadone and traboxopin were used.

The subject of series [8] is tetrabenazine ptosis. In words: Antagonism of tetrabenazine ptosis on mice. Particulars: for ED50: Mus musculus, po; for Therapeutical index LD50/ED50: tetrabenazine ptosis, mice, p.o.
Experimental: Groups consisting of 10 mice each were treated, perorally, with different doses of the compounds to be tested. The control group was treated only with the corresponding carrier. After 30 minutes, tetrabenazine [3-isobutyl-9,10-dimethoxy-1,2,3,4,6,7-hexahydrobenzo[a]quinolizine-2-one]was administered intraperitoneally at a dosage of 50 mg/kg. The number of animals having closed palpebral fissure was determined in each group after 30, 60, 90 and 120 minutes. Then, the mean value of ptosis was calculated in each group, and the deviation from that of the control group (i.e. the inhibition) was expressed in percentage. From the data obtained, the ED50 -value and the therapeutical index were determined for each novel compound tested as well as for amitryptiline [5-(3-dimethylaminopropylidine)-10,11-dihydro-5H-dibenzo[a,d]cycloheptene hydrochloride] and traboxopin [2-chloro-12(3-dimethylamino-2-methylpropyl)-12H-dibenzo[d,g][1,3,6]dioxazocine] employed for comparison.
Where [9] appears, read: white mice, p.o., 7 days observation, Litchfield and Wilcoxon, read-out: LD50 p.o.
The mark [10] stands for this setting: mice, p.o., 1 h before pentetrazole 125 mg/kg i.p., read-out: ED50.
The mark [11] stands for this setting: mice, p.o., 1 h before electroshock (50 Hz, 45 mA, 0.4 sec), full inhibition of tonic-extensoric spasm, read-out: ED50.

12 molecules from patent US4965259A, “Dioxazocine derivatives compositions and methods containing them having antidepressive, spasmolytic, anticonvulsive, and antiarrhythmic properties” (EGIS Gyogyszergyar, priority 1987, dated 1990) can be followed below.

The structures appear in SMILES notation. Where “and” joins values, the source holds several entries; their conditions need not be identical. Identical values can stand only once. Counter-ions that a name gives are not always drawn. Like-named read-outs stand apart in the source and are kept apart here.

As usually defined, the ED50 is the dose at which the effect has come halfway, by size or by number of responders. In the case of `OC(CCN1CCCCC1)(c1ccccc1)C1CCCCC1` (centres unmarked) [trihexyphenidyl], in series [1], the ED50 is 15 mg/kg and the “Therapeutical index LD50/ED50” value stood at 24.3.

As for `CNC1=Nc2ccc(Cl)cc2C(c2ccccc2)=[N+]([O-])C1` [chlordiazepoxide, 7-chloro-2-methylamino-5-phenyl-3H-1,4-benzodiazepine-4-oxide], the ED50 in series [2] turned out to be 10 mg/kg; in series [3], 60 mg/kg. In addition, the “Therapeutical index LD50/ED50” value in series [2] (narcosis potentiation) turned out to be 62.0; in series [3], 10.3.

In turn, `C=C[C@H]1C[N@@]2CC[C@H]1C[C@@H]2[C@@H](O)c1ccnc2ccc(OC)cc12` [quinidine] came in with an Inhibition in percentage in series [4] of 27.3%.

In the case of `CCN(CC)CC(=O)Nc1c(C)cccc1C` [lidocaine], in series [4], the Inhibition in percentage was 23.4%.

A word on the LD50: it is the dose expected to kill half of the subjects tested. For the molecule `CNCCCN1c2ccccc2OCOc2ccc(Cl)cc21` [Example 4, 2-Chloro-12-(3-methylaminopropyl)-12H-dibenzo[d,g][1,3,6]dioxazocine maleate], the LD50 at 168 h in series [5] (setting [9]) came to 720 mg/kg. The ED50 in series [6] (setting [10]) came out at 25 mg/kg; in series [7], 40 mg/kg; in series [8] it was 7.3 mg/kg. The “Therapeutical index LD50/ED50” value in series [6] (mice, p.o.) was 28.8; in series [7] (electroshock, mice, p.o.), 19; in series [8], 98.6. Also, in series [7] (electroshock, mice, statement on Table VII), the “Therapeutic index compared with that of the reference compounds” value is reported as 3-5 fold. The Inhibition in percentage in series [4] (maleate) was 90.9% and 90%.

For the molecule `CN1C(=O)OC(C)(C)C1=O` [trimetadione, 3,5,5-trimethyl-oxazolidine-2,4-dione], the ED50 was determined as 400 mg/kg in series [6] (setting [10]) and 490 mg/kg in series [7] (setting [11]). In addition, the “Therapeutical index LD50/ED50” value in series [6] (mice, p.o.) was 5.5.

For the molecule `CN(C)CCC=C1c2ccccc2CCc2ccccc21` [amitryptiline, 5-(3-dimethylaminopropylidine)-10,11-dihydro-5H-dibenzo[a,d]cycloheptene hydrochloride], in series [8], the ED50 worked out at 12 mg/kg and the “Therapeutical index LD50/ED50” value is reported as 18.7.

Regarding `CC(C)NCCCN1c2ccccc2OCOc2ccc(Cl)cc21` [Example 2, 2-Chloro-12-(3-isopropylaminopropyl)-12H-dibenzo[d,g][1,3,6]dioxazocine maleate], the LD50 at 168 h in series [5] (setting [9]) is 700 mg/kg. Moreover, in series [1], it took a dose of 5.2 mg/kg to reach the 50% effect level (ED50) and the “Therapeutical index LD50/ED50” value is 134.6.

Regarding `CCCC(C)(COC(N)=O)COC(N)=O` [meprobamate, 2-methyl-2-propylpropandiol-1,3-dicarbamate], the ED50 in series [2] turned out to be 260 mg/kg; in series [3], 270 mg/kg. Also, the figures for the “Therapeutical index LD50/ED50” value in series [2] (narcosis potentiation) and in series [3] were 4.2 and 4.1, respectively.

Take `CCC1(c2ccccc2)C(=O)NC(=O)NC1=O` [phenobarbital, 5-ethyl-5-phenylbarbituric acid]: the ED50 was 19 mg/kg in series [6] and 24.5 mg/kg in series [7]. Also, the “Therapeutical index LD50/ED50” value is listed as 8.8 in series [6] (mice, p.o.) and 6.8 in series [7] (electroshock, mice, p.o.).

`CNCC(C)CN1c2ccccc2OCOc2ccc(Cl)cc21` (centres unmarked) [Example 3, 2-Chloro-12-(3-methylamino-2-methylpropyl)-12H-dibenzo[d,g][1,3,6]dioxazocine hydrochloride]: the LD50 at 168 h in series [5] (setting [9]) is 500 mg/kg. In addition, the ED50 in series [2] worked out at 2.4 mg/kg; in series [3] it was 27 mg/kg; in series [1], 6.4 mg/kg; in series [6] (setting [10]) it was 19 mg/kg. The “Therapeutical index LD50/ED50” value is on record as 208 in series [2] (narcosis potentiation); 18.50 in series [3]; 78.1 in series [1]; 26.3 in series [6] (mice, p.o.). Also, the “Therapeutical index compared with the known reference compounds” value in series [2] (narcosis potentiation, statement on Table II) was “several times higher than that of the known reference compounds”.

In the case of `CC(CN(C)C)CN1c2ccccc2OCOc2ccc(Cl)cc21` (centres unmarked) [traboxopin, 2-chloro-12-(3-dimethylamino-2-methylpropyl)-12H-dibenzo[d,g][1,3,6]dioxazocine], in series [5] (reference compounds, printed in Table II, read-out: LD50), the LD50 at 168 h turned out to be 270 mg/kg. Further, the “Therapeutical index LD50/ED50” value amounted to 10.8 in series [2] (narcosis potentiation); 10.8 in series [3]; 10.8 in series [1]; 8.4 in series [6] (mice, p.o.); 5.0 in series [7] (electroshock, mice, p.o.). For the same molecule, the ED50 in series [3] turned out to be 25 mg/kg; in series [1], 25 mg/kg; in series [6] (setting [10]), 32 mg/kg; in series [7] (setting [11]) it was 54 mg/kg.
